The values that follow are results of earlier work, collected in article PMC11187573, “Identification of SARS-CoV-2 Mpro inhibitors through deep reinforcement learning for de novo drug design and computational chemistry approaches” (RSC Medicinal Chemistry, 2024).

By IC50 is commonly meant the concentration that gives 50% inhibition.

In data set [1] the test system is SARS, SARS-CoV-2 and MERS Mpro. The settings on record: Origin ChEMBL; ref ChEMBL; cited from earlier work.
Data set [2] has as its system Mpro. Conditions: ML dataset, Origin COVID_Moonshot; ref COVID Moonshot; cited from earlier work.

Turning to `O=c1cc(-c2ccc(O)cc2)oc2cc(O)cc(O)c12` [CHEMBL28, Oc(cc1)ccc1C(Oc1c2c(O)cc(O)c1)=CC2=O], the IC50 in data set [1] was 3.02 µM.

On to `CC(Cc1ccc(O)c(O)c1)C(C)Cc1ccc(O)c(O)c1` (centres unmarked) [CHEMBL52, CC(Cc(cc1)cc(O)c1O)C(C)Cc(cc1)cc(O)c1O], for which the IC50 in data set [1] is 2.59 µM.

Take `Cc1c(OCC(F)(F)F)ccnc1C[S+]([O-])c1nc2ccccc2[nH]1` (centres unmarked) [CHEMBL480, Cc(c(C[S+](c1nc(cccc2)c2[nH]1)[O-])ncc1)c1OCC(F)(F)F]: the IC50 in data set [1] is 0.995 µM.

For `O=c1cc(-c2ccccc2)oc2cc(O)c(O)c(O)c12` [CHEMBL8260, Oc(cc(c1c2O)OC(c3ccccc3)=CC1=O)c2O], in data set [1], the IC50 was 0.02 µM.

As for `CNC(=O)ON(C(C)=O)C(=O)NC` [CHEMBL9116, CC(N(C(NC)=O)OC(NC)=O)=O], in data set [1], the IC50 was 1.33 µM.

In the case of `Cc1ccc(S(=O)(=O)N[C@@H](Cc2ccccc2)C(=O)CCl)cc1` [CHEMBL60718, Cc(cc1)ccc1S(N[C@@H](Cc1ccccc1)C(CCl)=O)(=O)=O], in data set [1], the IC50 was 1.37 µM.

With `O=c1c(O)cccc2cc(O)c(O)c(O)c12` [CHEMBL66953, Oc(cc(C=CC=C(C1=O)O)c1c1O)c1O], the IC50 in data set [1] was 4.58 µM.

Turning to `Nc1nc(S)c2ncn(C3OC(CO)C(O)C3O)c2n1` (centres unmarked) [CHEMBL119171, Nc(nc1S)nc2c1ncn2C(C1O)OC(CO)C1O], in data set [1], the concentration for half-maximal inhibition (IC50) is 1.08 µM.

Take `CN(C)C(=S)SSC(=S)N(C)C` [CHEMBL120563, CN(C)C(SSC(N(C)C)=S)=S]: the IC50 in data set [1] is 0.05 µM.

`O=C(O)CCCCCCCCCCCCCCc1ccc(I)cc1` [CHEMBL128251]: the IC50 in data set [1] was 2.25 µM.

As for `C=CC(=O)c1ccc2ccccc2c1` [CHEMBL154580, C=CC(c1cc2ccccc2cc1)=O], the 50% inhibitory concentration (IC50) in data set [1] was 1.24 µM.

On to `C[N+]1(C)CCC(OC(=O)C(c2ccccc2)c2ccccc2)CC1` [CHEMBL168067, C[N+](C)(CC1)CCC1OC(C(c1ccccc1)c1ccccc1)=O], for which the IC50 in data set [1] was 2.36 µM.

For `Cc1coc2c1C(=O)C(=O)c1c-2ccc2c1CCCC2(C)C` [CHEMBL187266, CC(C)(CCC1)c(cc2)c1c(C1=O)c2-c(occ2C)c2C1=O], in data set [1], the IC50 was 1.6 µM.

Turning to `O=C1C(=O)N(Cc2cc3ccccc3s2)c2ccc(F)cc21` [CHEMBL187598, O=C(c(cc(cc1)F)c1N1Cc2cc(cccc3)c3s2)C1=O], the concentration for half-maximal inhibition (IC50) in data set [1] is 4.82 µM.

`O=C1C(=O)N(Cc2cc3ccccc3s2)c2c1cccc2[N+](=O)[O-]` [CHEMBL187717, [O-][N+](c(cccc1C2=O)c1N(Cc1cc(cccc3)c3s1)C2=O)=O]: the IC50 in data set [1] was 2 µM.

As to `O=C1C(=O)N(Cc2cc3ccccc3s2)c2ccc(I)cc21` [CHEMBL190743, O=C(c(cc(cc1)I)c1N1Cc2cc(cccc3)c3s2)C1=O], the IC50 in data set [1] was 0.95 µM.

As to `O=C1C(Cl)=C(Cl)C(=O)C(Cl)=C1Cl` [CHEMBL192627, O=C(C(Cl)=C(C1=O)Cl)C(Cl)=C1Cl], the IC50 in data set [1] was 0.02 µM.

For `Cc1cc(C)c(C)c(S(=O)(=O)N2CCN(C(=O)c3cc(=O)[nH]c4ccccc34)CC2)c1C` [MAT-POS-916a2c5a-3], in data set [2], the IC50 was 6.11 µM.

Take `O=C(c1cc(=O)[nH]c2ccccc12)N1CCN(c2ccccc2)CC1` [MAT-POS-916a2c5a-4, MAT-POS-916a2c5a-4, Mpro-x3303]: the IC50 in data set [2] is 19 µM.

On to `O=C(c1cc(=O)[nH]c2ccccc12)N1CCN(c2ccccc2)CC1` [MAT-POS-916a2c5a-4], for which the IC50 in data set [2] is 19 µM.

Turning to `Cc1ccncc1NC(=O)Cc1cc(Cl)cc(NC2CCC(F)(F)C2O)c1` (centres unmarked) [MAT-POS-044491d2-2], the IC50 in data set [2] is 24.4 µM.

Turning to `Cc1ccncc1NC(=O)Cc1cc(Cl)cc(NC2(C)CCC(F)(F)CC2)c1` [MAT-POS-044491d2-6], the half-inhibitory concentration (IC50) in data set [2] was 30.1 µM.

As to `O=C1CC(Oc2cc(Cl)cc(N(CCC3CCCCC3)C(=O)Nc3cncc4ccccc34)c2)N1` (centres unmarked) [MAT-POS-53907a1c-3, O=C(Nc1cncc2ccccc12)N(CCC1CCCCC1)c1cc(Cl)cc(OC(C2)NC2=O)c1, reference compound], the IC50 in data set [2] is 0.84 µM.

As to `CNc1ccc(N(C(=O)Cn2nnc3ccccc32)c2cccc(Cl)c2)cc1` [MAT-POS-06036648-5], the IC50 in data set [2] is 7.95 µM.

Consider `Cc1ccncc1NC(=O)[C@H]1CCOc2ccc(Cl)cc21` [MAT-POS-b3e365b9-3], for which, in data set [2], the IC50 was 5.66 µM.

Take `CC(C)c1ccncc1NC(=O)Cc1cccc(Cl)c1` [MAT-POS-bb423b95-5]: the IC50 in data set [2] is 22.9 µM.

On to `N#Cc1ncn(CC(=O)Nc2ccc(Br)cc2Cl)n1` [MAT-POS-e10a589d-4], for which the IC50 in data set [2] was 9.3 µM.

In the case of `CCCCc1nc(-c2nccn2Cc2ccoc2)c[nH]1` [MAT-POS-ea426761-53], the IC50 in data set [2] was 14.3 µM.

`O=C1CC(C(=O)Nc2cncc3ccccc23)c2cc(Cl)cc(Cl)c2N1` (centres unmarked) [MAT-POS-f39f51fd-1]: in data set [2], the IC50 is 2.74 µM.

For `Cc1ccncc1NC(=O)Cc1cc(Cl)cc(-c2ccc(C3CC3(F)F)cc2)c1` (centres unmarked) [MAT-POS-f42f3716-1], the IC50 in data set [2] was 5.64 µM.

With `CCc1cc(F)ccc1-c1cc(Cl)cc(CC(=O)Nc2cnccc2C)c1` [MAT-POS-f42f3716-4], the IC50 in data set [2] was 28.8 µM.

Take `Cc1ccncc1NC(=O)Cc1cc(Cl)cc(-c2ccc(C3(C)CCO3)cc2)c1` (centres unmarked) [MAT-POS-f42f3716-5]: the IC50 in data set [2] was 12.1 µM.

For the molecule `Cc1ccncc1NC(=O)Cc1cc(Cl)cc(-c2cnn(C)c2C(F)F)c1` [MAT-POS-f42f3716-7], the IC50 in data set [2] was 17.6 µM.

Consider `CC(C)(C)c1ccc(N(C(=O)c2cn[nH]c2)C(C(=O)NCCc2cccc(F)c2)c2cccnc2)cc1` (centres unmarked) [MAT-POS-f2460aef-5], for which, in data set [2], the IC50 is 5.33 µM.

With `CN1C(=O)CC(O)(C(=O)Nc2cncc3ccccc23)c2cc(Cl)ccc21` (centres unmarked) [MAT-POS-f9802937-2], in data set [2], the IC50 is 20.7 µM.

In the case of `CN(C)C(=O)C[C@]1(C(=O)Nc2cncc3ccccc23)CCOc2ccc(Cl)cc21` [MAT-POS-f9802937-3], in data set [2], the IC50 was 1.3 µM.

For `CN(C)C(=O)C[C@@]1(C(=O)Nc2cncc3ccccc23)CCOc2ccc(Cl)cc21` [MAT-POS-f9802937-4], the IC50 in data set [2] is 20.5 µM.

Regarding `CCOc1c(Cl)cccc1CC(=O)Nc1cncc2ccccc12` [MAT-POS-fce787c2-1], the IC50 in data set [2] is 6.96 µM.

Take `O=C(Cc1cc(Cl)cc(Cl)c1)Nc1cncc2ccccc12` [MAT-POS-fce787c2-2]: the IC50 in data set [2] was 1.37 µM.

For `O=C(Nc1cncc2ccccc12)C(O)c1ccc(Cl)c(Cl)c1` (centres unmarked) [MAT-POS-fce787c2-4], the IC50 in data set [2] was 2.01 µM.

On to `O=C(Nc1cncc2ccccc12)C(CO)c1ccc(Cl)c(Cl)c1` (centres unmarked) [MAT-POS-fce787c2-11], for which the IC50 in data set [2] was 19.3 µM.

As to `O=C(Cc1cc(Cl)cc(Cc2ccn[nH]2)c1)Nc1cncc2ccccc12` [PET-UNK-372a2f82-1], in data set [2], the IC50 was 7.22 µM.

On to `O=C(Cc1cncc2ccccc12)Nc1cccc(Cl)c1` [PET-UNK-8922bd3c-1], for which the IC50 in data set [2] was 6.84 µM.

With `O=C(Cc1cc(Cl)ccc1Cl)Nc1cncc2ccccc12` [PET-UNK-dd44aeb6-2], the IC50 in data set [2] is 1.02 µM.

Consider `O=C(Cc1cc(Cl)cc(-c2nnc[nH]2)c1)Nc1cncc2ccccc12` [RAL-THA-1d44ff04-8], for which, in data set [2], the IC50 is 5.3 µM.

Consider `O=C(Cc1ccc(Cl)cc1)Nc1cncc2ccccc12` [RAL-THA-2d450e86-2], for which the IC50 in data set [2] is 23.7 µM.

With `Cc1ccc(CC(=O)Nc2cncc3ccccc23)cc1` [RAL-THA-2d450e86-3], in data set [2], the IC50 was 58.4 µM.

As for `COc1ccc(CC(=O)Nc2cncc3ccccc23)cc1` [RAL-THA-2d450e86-4], in data set [2], the IC50 was 72.5 µM.

As to `Cc1ccc(CC(=O)Nc2cncc3ccccc23)cc1Cl` [RAL-THA-2d450e86-8], the IC50 in data set [2] was 1.09 µM.

With `O=C(Cc1ccc(Cl)c(F)c1)Nc1cncc2ccccc12` [RAL-THA-2d450e86-9], in data set [2], the IC50 was 2.03 µM.

With `COc1cccc(CC(=O)Nc2cncc3ccccc23)c1` [RAL-THA-2d450e86-11], the IC50 in data set [2] was 30.5 µM.

Regarding `O=C(Cc1cc(F)cc(Cl)c1)Nc1cncc2ccccc12` [RAL-THA-2d450e86-14], the IC50 in data set [2] is 0.383 µM.

Consider `O=C(Cc1cccc(Cl)c1F)Nc1cncc2ccccc12` [RAL-THA-2d450e86-19], for which the IC50 in data set [2] was 23.6 µM.

For the molecule `O=C(Cc1cccc(C(F)(F)F)c1)Nc1cncc2ccccc12` [RAL-THA-2d450e86-31], in data set [2], the IC50 was 6.94 µM.

`O=C(Cc1ccc(C(F)(F)F)cc1)Nc1cncc2ccccc12` [RAL-THA-2d450e86-32]: the IC50 in data set [2] was 24.8 µM.

Regarding `O=C(Cc1ccncc1Cl)Nc1cncc2ccccc12` [RAL-THA-2d450e86-34], in data set [2], the IC50 was 52.6 µM.

For `Cc1ccccc1CC(=O)Nc1cncc2ccccc12` [RAL-THA-2d450e86-38], in data set [2], the IC50 is 29.5 µM.

As to `COc1ccccc1CC(=O)Nc1cncc2ccccc12` [RAL-THA-2d450e86-39], the IC50 in data set [2] was 35 µM.

Consider `COCCN1CCC(C(=O)Nc2cncc3ccccc23)c2cc(Cl)ccc21` (centres unmarked) [RAL-THA-4aa06b95-7], for which the IC50 in data set [2] was 0.564 µM.

As to `CNC(=O)c1cc(Cl)cc(CC(=O)Nc2cnccc2C)c1` [RAL-THA-6b94ceba-7], the IC50 in data set [2] is 47.7 µM.

For the molecule `Cc1ccncc1NC(=O)Cc1cc(Cl)cc(CNS(C)(=O)=O)c1` [RAL-THA-6b94ceba-12], the IC50 in data set [2] was 24.4 µM.

Consider `Cc1ccncc1NC(=O)Cc1cc(Cl)cc(S(N)(=O)=O)c1` [RAL-THA-6b94ceba-13], for which, in data set [2], the IC50 is 13.9 µM.

Take `O=C(Nc1cncc2ccccc12)C1CCN(Cc2ccccc2)c2ccc(Cl)cc21` (centres unmarked) [RAL-THA-8416115c-1]: the IC50 in data set [2] was 1.06 µM.

In the case of `O=C(Nc1cncc2ccccc12)C1CCN(Cc2ccn[nH]2)c2ccc(Cl)cc21` (centres unmarked) [RAL-THA-8416115c-6], the IC50 in data set [2] was 0.803 µM.

In the case of `CN(C)C(=O)CN1CCC(C(=O)Nc2cncc3ccccc23)c2cc(Cl)ccc21` (centres unmarked) [RAL-THA-8416115c-9], in data set [2], the IC50 is 2.54 µM.

`CNC(=O)Nc1ccc(N(Cc2ccsc2)C(=O)Cn2nnc3ccccc32)cc1` [ROB-IMP-e811baff-1]: in data set [2], the concentration for half-maximal inhibition (IC50) was 8.37 µM.

Consider `Cc1ccncc1NC(=O)Cc1cc(C#N)cc(OC2CC(=O)N2)c1` (centres unmarked) [TRY-UNI-2eddb1ff-6], for which the IC50 in data set [2] was 10.1 µM.

`O=C(Cc1ccc(Cl)c(Cl)c1)Nc1cncc2cnccc12` [VLA-UNK-82501c2c-1]: the IC50 in data set [2] was 1.85 µM.

With `O=C(Cc1ccc(Cl)c(Cl)c1)Nc1cncc2ccncc12` [VLA-UNK-82501c2c-2], the IC50 in data set [2] was 1.79 µM.

Consider `N#Cc1cc(Cl)cc(NC(=O)Nc2cccnc2)c1` [WAR-XCH-eb7b662f-2], for which, in data set [2], the IC50 was 99 µM.

Regarding `Cc1ccncc1NC(=O)Cc1cc(Cl)cc(NS(C)(=O)=O)c1` [WIL-MOD-03b86a88-5], in data set [2], the IC50 is 21.8 µM.
